Experimental data taken from US9771389B2, “Tylosin derivatives and method for preparation thereof” (BAYER ANIMAL HEALTH GMBH, priority 2013, dated 2017).
Values after ≈ are worked out from the molar mass of the structure shown.

How the values were obtained:
[1] = test system: Streptococus dysgalactiae; assay: MIC50 mastitis pathogens, broth dilution; format: cell-based; details: Str dysgalactiae, 7 to 12 isolates, 24 hours
Source text: (§1) The activity of several compounds against bacterial mastitis pathogens has been tested under in-vitro conditions according to a recognized procedure (CLSI, document […]-A3, 2008). In this test 7 to 12 representative bacteria belonging to 7 bacterial species that typically cause mastitis in dairy cattle, i.e. Staphylococcus aureus, coagulase negative staphylococci (CNS), Streptococcus uberis, Streptococus dysgalactiae, Streptococcus agalactiae, Arcanobacterium pyogenes and Escherichia coli, were exposed to two-fold dilutions of the test compounds. After 24 hours of incubation the concentration that inhibited the growth of this bacteria was determined. It could be shown that all these bacterial mastitis pathogens were highly susceptible to the test compounds.

Staphylococcus aureus = assay: MIC50 mastitis pathogens, broth dilution; format: cell-based; details: S. aureus, 7 to 12 isolates, 24 hours
Source text: as §1

Streptococcus agalactiae = assay: MIC50 mastitis pathogens, broth dilution; format: cell-based; details: Str agalactiae, 7 to 12 isolates, 24 hours
Source text: as §1

Streptococcus uberis = assay: MIC50 mastitis pathogens, broth dilution; format: cell-based; details: Str uberis, 7 to 12 isolates, 24 hours
Source text: as §1

[2] = test system: coagulase negative staphylococci (CNS); assay: MIC50 mastitis pathogens, broth dilution; format: cell-based; details: 7 to 12 isolates, 24 hours
Source text: as §1

Escherichia coli = assay: MIC50 mastitis pathogens, broth dilution; format: cell-based; details: E. coli, 7 to 12 isolates, 24 hours
Source text: as §1

Arcanobacterium pyogenes = assay: MIC50 mastitis pathogens, broth dilution; format: cell-based; details: Trueperella pyogenes, A. pyogenes, 7 to 12 isolates, 24 hours
Source text: as §1

[3] = test system: Mannheimia haemolytica, 3 isolates; assay: MIC against Mannheimia haemolytica isolates; format: cell-based; details: Mannheimia haemolytica, 3ISOLATES, 3 Mannheimia haemolytica isolates; broth dilution method; read-out: Range of minimum inhibitory concentrations (MIC)
Method: (§2) Minimal inhibitory concentrations (MICs) were determined against the most prevalent pathogens in cattle (Mannheimia Haemolytica, 3 isolates) and swine (A. pleuropneumoniae, 6 isolates). In addition the activity of several compounds was tested against two bacterial species, i.e. Mannheimia haemolytica and Actinobacillus pleuropneumoniae, which are considered as the most important bacterial respiratory pathogens in cattle and swine, respectively.

[4] = test system: Actinobacillus pleuropneumoniae, 6 isolates; assay: MIC against Actinobacillus pleuropneumoniae isolates; format: cell-based; details: 6ISOLATES; 6 Actinobacillus pleuropneumoniae isolates; broth dilution method; read-out: Range of minimum inhibitory concentrations (MIC)
Method: as §2

[5] = test system: S. aureus bacteria (strain Newbould); assay: Mouse mastitis model of infection; format: in vivo, mice; details: for mean S. aureus count in glands: 14 hours after application, untreated 8.64 log 10
Source text: The clinical efficacy of compound YT709 against mastitis caused by S. aureus was shown in lactating mice according to a recognized published procedure (E. Brouillette, G. Grondin, C. Lefebvre, B. G. Talbot, F. Malouin, Mouse mastitis model of infection for antimicrobial compound efficacy studies against intracellular and extracellular forms of Staphylococcus aureus, Veterinary Microbiology, 101, (2004), 253-262). Into the glands of lactating mice S. aureus bacteria (strain Newbould) were instilled and allowed to multiply. Bacterium S. aureus Newbould is an isolate which was isolated from a clinical case of bovine mastitis and which also causes typical mastitis infection in dairy cattle upon experimental, intramammary infection. Four hours after the intramammary infection of lactating mice with S. aureus Newbould, compound YT709 was instilled into the infected glands. Different intramammary dosages of YT709 were tested and their efficacy compared to an infected, untreated control group. Fourteen hours after intramammary application of YT709, the glands of the treated and untreated mice were removed, homogenized and the number of S. aureus bacteria counted in 10-fold dilutions of the homogenized glands. The mean S. aureus count of 8 untreated glands was 10^8.64 (8.64 log 10) bacteria. The mean S. aureus count in 6 glands that had been treated with 200 microgram YT709 was 10^5.10 bacteria (5.10 log 10). […] The mean S. aureus count in the 5 glands that had been treated with 400 microgram YT709 was 10^2.34 bacteria (2.34 log 10).

[6] = test system: Xanthomonas campestris KB88; assay: Paper disc assay, Xanthomonas campestris; format: cell-based; details: X
Method: (§3) (2) Antibacterial activities against other bacteria were determined with Micrococcus luteus ATCC9341 (1), Bacillus subtilis […] (s), Escherichia coli NIHJ (c), Xanthomonas campestris KB88 (X), Mucor racemosus IFO 4581 (Mu) and Candida albicans ATCC 64548 (Ca).
(§4) Bacillus subtilis ATCC6633 was incubated in Davis synthetic medium and then the seed broth was combined with the medium in the ratio of 1:99 to obtain a test plate. Micrococcus luteus ATCC9341, Escherichia coli NIHJ and Xanthomonas campestris KB88 were respectively incubated in Nutrient agar medium and inoculated at 0.2%, 0.5% and 1.0%. Mucor racemosus IFO 4581 and Candida albicans ATCC 64548 were respectively incubated in GY agar medium and then inoculated at 0.3% and 0.2%.
(§5) A paper disc (ADVANTEC, Φ:6 mm) was impregnated with a solution of test compound and dried under reduced pressure. The paper disc was put on the test plate and it was incubated for 24 hours at 37° C. After incubation, the inhibition zone diameter and clarity (A to E) were determined.

Escherichia coli NIHJ = assay: Paper disc assay, Escherichia coli; format: cell-based; details: c
Method: as §3, §4, §5

[7] = test system: Micrococcus luteus ATCC9341; assay: Paper disc assay, Micrococcus luteus; format: cell-based; details: column 1
Method: as §3, §4, §5

[8] = test system: Bacillus subtilis ATCC6633; assay: Paper disc assay, Bacillus subtilis; format: cell-based; details: S
Method: as §3, §4, §5

[9] = test system: M. hemolytica KB346 (Tilmicosin-low sensitivity strain); assay: Paper disc assay, M. hemolytica KB346; format: cell-based, Mannhemia hemolytica; details: 10 mg/6 mm disk; Table 5
Method: (1) Antibacterial activities against Mannheimia and Pasteurella were determined by the following steps: • 1) M. hemolytica KB345 (Tilmicosin-sensitivity strain) and M. hemolytica KB346 (Tilmicosin-low sensitivity strain) were provided. KB 345 strain stored at −80° C. was seeded to BHIB agar medium (10 mL) by using Microbank beads (Pro-Lab) and platinum nail. After statically incubating the KB 345 strain for 24 hours at 37° C., it was seeded to maintaining slant BHIB agar medium (7 mL) by using platinum loop, further statically incubated for 24 hours at 37° C. to obtain slant. One platinum loop of KB 345 strain stored at the slant was inoculated into a large test tube charged with BHIB liquid medium (10 mL) and then incubated for 24 hours at 37° C. with shaking. • 2) A paper disc (ADVANTEC, Φ:6 mm) was impregnated with a solution of test compound and dried under reduced pressure. • 3) To a melted BHIB agar medium was inoculated 1% of the broth obtained from step 1) above to prepare a test plate. After the medium set, the paper disc prepared in step 2) above was put on the plate and it was incubated at 37° C. • 4) After one day, the inhibition zone diameter and clarity (A to E) were determined. For KB346 strain, the same procedures were repeated.

| Structure (SMILES) | MIC50 [1] [µg/mL] | MIC50 (Staphylococcus aureus) [µg/mL] | MIC50 (Streptococcus agalactiae) [µg/mL] | MIC50 (Streptococcus uberis) [µg/mL] | MIC50 [2] [µg/mL] | MIC50 (Escherichia coli) [µg/mL] | MIC50 (Arcanobacterium pyogenes) [µg/mL] | MIC [3] [µg/mL] | MIC [4] [µg/mL] | other results |
| --- | --- | --- | --- | --- | --- | --- | --- | --- | --- | --- |
| CC[C@H]1OC(=O)C[C@@H](O)[C@H](C)[C@@H](O[C@@H]2OC(C)[C@@H](O)C(N(C)C)C2O)[C@@H](CCNCCn2cc(-c3cnc4ccccc4c3)nn2)C[C@@H](C)C(=O)/C=C/C(C)=C/[C@@H]1CO (stereo partly drawn) [YT732] | 0.12 (≈ 0.146 µM) | 0.5 (≈ 0.609 µM) | 0.03 (≈ 0.0365 µM) | 0.03 (≈ 0.0365 µM) | 0.25 (≈ 0.304 µM) | 8 (≈ 9.74 µM) | 0.008 (≈ 0.00974 µM) | 1 to 4 (≈ 1.22 to 4.87 µM) | 2 to 4 (≈ 2.44 to 4.87 µM) | – |
| CC[C@H]1OC(=O)C[C@@H](O)[C@H](C)[C@@H](O[C@@H]2OC(C)[C@@H](O)C(N(C)C)C2O)[C@@H](CCN(Cc2ccccc2)Cc2cn(-c3cnc4ccccc4c3)nn2)C[C@@H](C)C(=O)/C=C/C(C)=C/[C@@H]1CO (stereo partly drawn) [YT709] | 0.06 (≈ 0.0669 µM) | ≤ 0.03 | 0.06 (≈ 0.0669 µM) | 0.06 (≈ 0.0669 µM) | ≤ 0.03 | 16 (≈ 17.8 µM) | 0.008 (≈ 0.00892 µM) | 2 to 4 (≈ 2.23 to 4.46 µM) | 2 to 4 (≈ 2.23 to 4.46 µM) | reduction of number of bacteria vs untreated glands ([5]; 200 microgram intramammary): about 3500 fold; mean S. aureus count in glands ([5]; 200 microgram intramammary, 6 glands): 5.10 log 10; glands in which the infection was cleared ([5]; 400 microgram intramammary): 2 out of 5; reduction of number of bacteria vs untreated glands ([5]; 400 microgram intramammary): about two million; mean S. aureus count in glands ([5]; 400 microgram intramammary, 5 glands): 2.34 log 10 |
| CC[C@H]1OC(=O)C[C@@H](O)[C@H](C)[C@@H](O[C@@H]2O[C@H](C)[C@@H](O)[C@H](N(C)C)[C@H]2O)[C@@H](CCn2cc(-c3ccsc3)nn2)C[C@@H](C)C(=O)/C=C/C(C)=C/[C@@H]1CO[C@@H]1O[C@H](C)[C@@H](O)[C@@H](OC)[C@H]1OC [YT14, 20-(4-(thiophene-3-yl)-1H-1,2,3-triazol-1-yl)-20-deoxodesmycosin] | – | – | – | – | – | – | – | – | – | Inhibition zone ([6]; 0.1 mg/6 mm disc): 7 mm; Inhibition zone ([6]; 1 mg/6 mm disc): 16 mm; Inhibition zone ([6]; 10 mg/6 mm disc): 22 mm; Inhibition zone (Escherichia coli NIHJ; 10 mg/6 mm disc): 7 mm; Inhibition zone ([7]; 0.1 mg/6 mm disc): 13.5 mm; Inhibition zone ([7]; 1 mg/6 mm disc): 20.5 mm; Inhibition zone ([7]; 10 mg/6 mm disc): 26.5 mm; Inhibition zone ([8]; 0.1 mg/6 mm disc): 8 mm; Inhibition zone ([8]; 1 mg/6 mm disc): 11 mm; Inhibition zone ([8]; 10 mg/6 mm disc): 15 mm |
| CC[C@H]1OC(=O)C[C@@H](O)[C@H](C)[C@@H](O[C@@H]2OC(C)[C@@H](O)C(N(C)C)C2O)[C@@H](CCN(Cc2ccccc2)Cc2cn(-c3ccc4ccccc4c3)nn2)C[C@@H](C)C(=O)/C=C/C(C)=C/[C@@H]1CO (stereo partly drawn) [YT762] | 0.12 (≈ 0.134 µM) | 1 (≈ 1.12 µM) | 0.03 (≈ 0.0335 µM) | 0.03 (≈ 0.0335 µM) | 0.25 (≈ 0.279 µM) | 8 (≈ 8.93 µM) | 0.015 (≈ 0.0167 µM) | – | – | – |
| CC[C@H]1OC(=O)C[C@@H](O)[C@H](C)[C@@H](O[C@@H]2OC(C)[C@@H](O)C(N(C)C)C2O)[C@@H](CCN(C)Cc2cn(-c3cnc4ccccc4c3)nn2)C[C@@H](C)C(=O)/C=C/C(C)=C/[C@@H]1CN1CCCCC1 (stereo partly drawn) [YT769] | ≤ 0.015 | 0.25 (≈ 0.281 µM) | ≤ 0.015 | ≤ 0.015 | 0.25 (≈ 0.281 µM) | 4 (≈ 4.5 µM) | ≤ 0.015 | – | – | – |
| CC[C@H]1OC(=O)C[C@@H](O)[C@H](C)[C@@H](O[C@@H]2OC(C)[C@@H](O)C(N(C)C)C2O)[C@@H](CCNCc2cn(-c3cnc4ccccc4c3)nn2)C[C@@H](C)C(=O)/C=C/C(C)=C/[C@@H]1CO (stereo partly drawn) [YT739] | 0.12 (≈ 0.149 µM) | 0.5 (≈ 0.62 µM) | 0.03 (≈ 0.0372 µM) | 0.03 (≈ 0.0372 µM) | 0.25 (≈ 0.31 µM) | 8 (≈ 9.91 µM) | 0.008 (≈ 0.00991 µM) | – | – | – |
| CC[C@H]1OC(=O)C[C@@H](O)[C@H](C)[C@@H](O[C@@H]2OC(C)[C@@H](O)C(N(C)C)C2O)[C@@H](CCNCCn2cc(-c3ccc(-c4ccccc4)cc3)nn2)C[C@@H](C)C(=O)/C=C/C(C)=C/[C@@H]1CO (stereo partly drawn) [YT721] | 0.25 (≈ 0.295 µM) | 0.5 (≈ 0.591 µM) | 0.125 (≈ 0.148 µM) | 0.12 (≈ 0.142 µM) | 0.5 (≈ 0.591 µM) | 8 (≈ 9.46 µM) | 0.06 (≈ 0.0709 µM) | 1 to 4 (≈ 1.18 to 4.73 µM) | 8 (≈ 9.46 µM) | – |
| CC[C@H]1OC(=O)C[C@@H](O)[C@H](C)[C@@H](O[C@@H]2O[C@H](C)[C@@H](O)[C@H](N(C)C)[C@H]2O)[C@@H](CCN2C[C@H](C)C[C@H](C)C2)C[C@@H](C)C(=O)/C=C/C(C)=C/[C@@H]1CO[C@@H]1O[C@H](C)[C@@H](O)[C@@H](OC)[C@H]1OC [Tilmicosin, tilmicosin, reference compound] | – | – | – | – | – | – | – | – | – | Inhibition zone ([6]; 0.1 mg/6 mm disc): 12 mm; Inhibition zone ([6]; 1 mg/6 mm disc): 20 mm; Inhibition zone ([6]; 10 mg/6 mm disc): 30 mm; Inhibition zone (Escherichia coli NIHJ; 1 mg/6 mm disc): 13 mm; Inhibition zone (Escherichia coli NIHJ; 10 mg/6 mm disc): 20 mm; Inhibition zone ([7]; 0.1 mg/6 mm disc): 12 mm; Inhibition zone ([7]; 1 mg/6 mm disc): 19 mm; Inhibition zone ([7]; 10 mg/6 mm disc): 27.5 mm; Inhibition zone [9]: 11.0 mm; Inhibition zone ([8]; 0.1 mg/6 mm disc): 14 mm; Inhibition zone ([8]; 1 mg/6 mm disc): 11 mm; Inhibition zone ([8]; 10 mg/6 mm disc): 18 mm |
